PubChem BioAssay AID2696 (Johns Hopkins Ion Channel Center, 2010)
Several values for one entry are separate records, joined by “and”; a condition that tells them apart may be missing. Equal values may be shown once.

target: Short transient receptor potential channel 6 (Mus musculus) (UniProt Q61143); assay: TRPC6 inhibitor potency, dose response, cell-based, mouse TRPC6, HEK293, membrane potential (AID 2696); settings: TRPC6-expressing HEK293 cells, membrane potential dye fluorescence, acetylcholine-stimulated
Sequence (Q61143 whole entry, looked up): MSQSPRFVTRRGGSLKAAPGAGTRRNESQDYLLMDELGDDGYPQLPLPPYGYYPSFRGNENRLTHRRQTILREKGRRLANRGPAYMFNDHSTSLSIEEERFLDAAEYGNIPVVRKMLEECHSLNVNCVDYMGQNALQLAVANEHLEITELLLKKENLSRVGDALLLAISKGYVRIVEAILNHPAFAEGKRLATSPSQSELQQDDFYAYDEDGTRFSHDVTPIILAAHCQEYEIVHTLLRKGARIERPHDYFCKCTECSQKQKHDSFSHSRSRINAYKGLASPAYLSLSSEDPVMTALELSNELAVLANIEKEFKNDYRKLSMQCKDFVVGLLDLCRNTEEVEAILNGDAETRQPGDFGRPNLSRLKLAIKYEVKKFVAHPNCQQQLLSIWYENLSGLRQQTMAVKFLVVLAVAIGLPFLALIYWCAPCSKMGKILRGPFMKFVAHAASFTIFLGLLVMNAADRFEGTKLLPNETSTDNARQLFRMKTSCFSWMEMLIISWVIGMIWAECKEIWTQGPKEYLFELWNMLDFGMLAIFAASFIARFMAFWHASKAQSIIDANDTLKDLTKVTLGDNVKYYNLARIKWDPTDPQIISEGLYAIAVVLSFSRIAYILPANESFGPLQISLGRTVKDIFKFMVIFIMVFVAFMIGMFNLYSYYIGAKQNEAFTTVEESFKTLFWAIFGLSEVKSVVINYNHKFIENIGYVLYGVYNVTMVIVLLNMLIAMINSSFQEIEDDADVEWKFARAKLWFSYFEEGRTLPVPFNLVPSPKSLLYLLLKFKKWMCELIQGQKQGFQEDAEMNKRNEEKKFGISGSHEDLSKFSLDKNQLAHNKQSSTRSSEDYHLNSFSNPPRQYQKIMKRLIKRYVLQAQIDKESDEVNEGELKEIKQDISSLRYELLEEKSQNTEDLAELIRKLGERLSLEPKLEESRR

Structure (SMILES)	IC50
CCOC(=O)c1cn(C2CC2)c2c(F)c(NCCCN(C)C)c(F)cc2c1=O	70.8 µM
CCOC(=O)N1CCC(N2CCN(CCC(C)C)C(CCO)C2)CC1 (centres undefined)	14.1 µM
Clc1ccc(C(c2ccccc2)N2CCNCC2)cc1 (centres undefined)	50.1 µM
Cc1ccc(C(OCC(C)(C)C[N+](C)(C)C)c2ccccc2)cc1 (centres undefined)	44.7 µM
CC(NC(=O)Nc1nnc(C(F)(F)F)s1)(C(F)(F)F)C(F)(F)F	22.4 µM
CCCCCCCCCCCCn1ccc(=N)cc1	35.5 µM
CC(C)[N+](C)(C)CC#CC(O)(c1ccccc1)c1ccccc1	2 µM
N=c1sccn1CC(=O)Nc1cc(Cl)ccc1Oc1ccccc1	44.7 µM
N#CC(c1cccc(Cl)c1)c1ccc2c(C(F)(F)F)cc(C(F)(F)F)nc2n1 (centres undefined)	31.6 µM
Cn1c(NCc2c[nH]c3ccccc23)nc2ccccc21	50.1 µM
O=C(c1ccc(C(F)(F)F)cc1)C1CCCN(C2CCSCC2)C1 (centres undefined)	39.8 µM
CCN(CC)CCn1c(NC(=O)c2ccccc2O)nc2ccccc21	31.6 µM
Cc1cc(C)n(-c2nc(SCCN(C)C)c3c4c(sc3n2)COC(C)(C)C4)n1	79.4 µM
CCOC(=O)c1cnc2c(Cl)cccc2c1NCCN(C)C	63.1 µM
CCOC(=O)N1CCN(S(=O)(=O)c2cc(Br)cnc2N)CC1	19.9 µM
Cc1ccc(C(O)(CCN2CCCCC2)c2ccccc2)cc1 (centres undefined)	19.9 µM
CN1CCCC(C#CC(O)(c2ccccc2)c2ccccc2)C1 (centres undefined)	15.8 µM
c1ccc(-c2nc(-c3ccccn3)nc(-c3ccccn3)n2)nc1	44.7 µM
COc1ccc(C2NC(=O)NC(O)(C(F)(F)F)C2C(=O)c2ccc(C)cc2)cc1 (centres undefined)	14.1 µM
Nc1c2c(nc3ccn(Cc4ccccc4)c(=O)c13)CCC2	70.8 µM
CCN(c1ccccc1)S(=O)(=O)c1cccc(C(=O)N2CCN(S(=O)(=O)c3ccccc3)CC2)c1	63.1 µM

Structure (SMILES)	IC50
CCCn1c(=N)n(CC(=O)c2ccc(Cl)cc2)c2ccccc21	70.8 µM
CN(C)CCn1c(C(=O)Nc2ccccc2)cc2ccccc21	39.8 µM
O=C(NC(Nc1ncc(S(=O)(=O)c2ccc([N+](=O)[O-])cc2)s1)(C(F)(F)F)C(F)(F)F)c1ccc(Cl)cc1	44.7 µM
CN(c1ccccc1)P(=O)(N(C)c1ccccc1)N(C)c1ccccc1	44.7 µM
CCOC(=O)c1ccc(NC(=O)CCc2ccc(CC)o2)cc1	79.4 µM
OC(C#CCN1CCCC1)(c1ccccc1)c1ccccc1	3.98 µM
CCn1c2c(c(=N)c3ccccc31)CCC2	50.1 µM
Cc1ccc(C2N(c3ccccc3)C(=S)N3CCCN23)cc1 (centres undefined)	25.1 µM
CCC(C)N(CCNC(=O)CC1Oc2ccc(C)cc2NC1=O)C1CCCCC1 (centres undefined)	15.8 µM
Cc1onc(-c2ccccc2)c1C(=O)N/N=C/c1ccc([N+](=O)[O-])s1	39.8 µM
CN1[C@@H]2CC[C@H]1CC(OC(=O)C(CO)c1ccccc1)C2 (some centres undefined)	0.08 µM
CCc1ccc(N=C2N=C(N)c3ccccc32)cc1	50.1 µM
Cc1cc(C)n(-c2nc(NCCCN(C)C)c3c4c(sc3n2)CCCC4)n1	44.7 µM
CC(C)(C)c1ccc(Cn2c(=N)n(CC(O)c3ccco3)c3ccccc32)cc1 (centres undefined)	44.7 µM
N=c1c(C(=O)NCCN2CCOCC2)cc2c(=O)n3ccccc3nc2n1CCc1ccccc1	50.1 µM
CC[N+](C)(CC)CCOC(=O)C(O)(c1ccccc1)C1CCCCC1 (centres undefined)	0.79 µM
O=S(=O)(Nc1nc2ccccc2[nH]1)c1ccc(Cl)cc1	7.08 µM
O=C(c1ccc2c(=O)n3c(nc2c1)CCCCC3)N1CCN(C(c2ccccc2)c2ccccc2)CC1	19.9 µM
COc1ccccc1Nc1nc(NCC2CCCO2)c2ccccc2n1 (centres undefined)	79.4 µM
CN(C)CCCOC(=O)C1c2ccccc2Oc2ccccc21	6.31 µM
CCOc1ccc(CNc2ccc3c(c2)ncn3C(C)(C)C)cc1	14.1 µM

Structure (SMILES)	IC50
Cc1cccc(NS(=O)(=O)c2cccc(C(=O)N3CCN(c4ccccn4)CC3)c2)c1	50.1 µM
CCCc1cc(=S)n2c([nH]c3ccccc32)c1C#N	50.1 µM
C[N+]1(C)CCC(OC(=O)C(c2ccccc2)c2ccccc2)CC1	0.28 µM
O=C(CSc1ncccn1)N1CCN(C(c2ccccc2)c2ccccc2)CC1	50.1 µM
Oc1ccccc1Nc1nc(NCC2CCCO2)c2ccccc2n1 (centres undefined)	50.1 µM
O=[N+]([O-])c1cc([N+](=O)[O-])c2c(=Nc3ccccc3)n(-c3ccccc3)n(O)c2c1	50.1 µM
CCCc1cc(-c2[nH]ncc2-c2ccc3c(c2)OCCCO3)c(O)cc1O	50.1 µM
COc1ccc2ccccc2c1CNCc1ccc(C)cc1	44.7 µM
CCOc1cccc(=NC2CCCCC2)c2c(C)n(C)c(C)c12	50.1 µM
Cn1c(=O)c(C#N)c(-c2ccc(F)cc2)c2cc(C(=O)c3cc(Cl)cc(Cl)c3O)cnc21	44.7 µM
Cc1ccc(C23CC4CC(CC(CN)(C4)C2)C3)cc1	39.8 µM
CCCCc1nc2ccccc2c(N)c1CCC (tested in a mixture with another compound)	70.8 µM
Cc1cccc(-c2nc(NCCCN(C)C)c3ccccc3n2)c1	70.8 µM
CCOC(=O)c1ccc(NC(=S)NCc2ccco2)cc1	50.1 µM
COc1cc(/C=N/Nc2nncc3ccccc23)cc(OC)c1OC	44.7 µM
CC(C)c1ccc(OCC(O)Cn2cnc3ccccc32)cc1 (centres undefined)	39.8 µM
CCCC(CCC)C(=O)OC1C[C@H]2CC[C@@H](C1)[N+]2(C)C (some centres undefined)	3.55 µM
Cc1nc2c(o1)CCc1ccccc1C2N1CCN(C)CC1 (centres undefined)	0.79 µM and 3.16 µM
C[N+]1(C)CCCC(OC(=O)C(O)(c2ccccc2)c2ccccc2)C1 (centres undefined)	0.89 µM
Cc1ccc(C)c(NC(=O)C(NCC(C)(C)N2CCOCC2)c2ccccc2)c1 (centres undefined)	25.1 µM
CCN(CC)CCCNc1nc(-c2ccccc2)nc2ccccc12	79.4 µM

Structure (SMILES)	IC50
CCN(CC)CCCOC(=O)C(OC(C)C)(c1ccccc1)c1ccccc1	3.98 µM
CN(C)C/C=C/C(O)(c1ccccc1)c1ccccc1	10 µM
Cc1nnc(-c2ccccc2)c(=O)n1/N=C/c1c(O)ccc2ccccc12	79.4 µM
COC(=O)C(NC(=O)c1ccc(C)cc1)(Nc1cccc(C)n1)C(F)(F)F (centres undefined)	50.1 µM
OC(C#CCCN1CCCCC1)(c1ccccc1)C1CCCCC1 (centres undefined)	3.55 µM
O=C(CSc1c2c(nc3ccc(Cl)cc13)CCCC2)NCCCN1CCOCC1	39.8 µM
CC[n+]1c(/C=C/Nc2ccccc2)sc2ccccc21	79.4 µM
CCN(CC)CCOC(=O)C1c2ccccc2Oc2ccccc21	1.78 µM
CCCCCOC(=O)c1ccc(NC(=O)c2ccco2)cc1	70.8 µM
CCOC(=O)C1CCCN(C(=O)c2cc3c(C)nc4ccccc4c3o2)C1 (centres undefined)	50.1 µM
CCN(CC)CCSc1nnc(Nc2ccccc2)n1-c1ccccc1	44.7 µM
Cn1c2c(c(=O)n(C)c1=O)C(C(F)(F)F)(C(F)(F)F)N=C(c1ccc(Cl)cc1)N2	7.94 µM
CCCC(CCC)C(=O)OC[N+](C)(C)CCOC(=O)C(O)(c1ccccc1)C1CCCC1 (centres undefined)	1.78 µM
Cc1c(CCOC(=O)C23CC4CC(CC(C4)C2)C3)sc[n+]1Cc1ccccc1	39.8 µM
CCCCCCn1c2c(c(=N)c3c1CCC3)CCC2	79.4 µM
CC1CCN(CC(C)CNC(=O)c2cc(-c3ccccn3)nc3ccccc23)CC1 (centres undefined)	44.7 µM
COC(=O)c1ccc(NC(=O)c2snnc2-c2ccccc2)cc1	39.8 µM
CC(C)Cn1c(=O)c(C(=O)Nc2ccncc2)c(O)c2ccccc21	3.16 µM
CCC(CO)(C(=O)OC1CC2CCC(C1)N2C)c1ccccc1 (centres undefined)	0.09 µM
CCN(CC)CCC#CC(O)(c1ccccc1)C1CCCCC1 (centres undefined)	11.2 µM
Clc1ccc2c(N3CCCC3)ccnc2c1	56.2 µM
